Source: patent publication US20050261298A1, “Methods of treating conditions associated with an Edg-7 receptor” (priority 2002, published 2005)

How the values were obtained:
Edg-1 [1] = target: T1, Edg-1 (Homo sapiens, UniProt P21453); assay: Calcium mobilization assay (FLIPR), agonist stimulation of calcium increase; assay type: cell-based; conditions: HTC cells expressing Edg-1; for stimulation of calcium increases, Edg-1: concentrations as high as 25 µM
T1 construct: expressed in transfected cells; host or cells: HTC rat hepatoma cells
T1 sequence (P21453 whole entry): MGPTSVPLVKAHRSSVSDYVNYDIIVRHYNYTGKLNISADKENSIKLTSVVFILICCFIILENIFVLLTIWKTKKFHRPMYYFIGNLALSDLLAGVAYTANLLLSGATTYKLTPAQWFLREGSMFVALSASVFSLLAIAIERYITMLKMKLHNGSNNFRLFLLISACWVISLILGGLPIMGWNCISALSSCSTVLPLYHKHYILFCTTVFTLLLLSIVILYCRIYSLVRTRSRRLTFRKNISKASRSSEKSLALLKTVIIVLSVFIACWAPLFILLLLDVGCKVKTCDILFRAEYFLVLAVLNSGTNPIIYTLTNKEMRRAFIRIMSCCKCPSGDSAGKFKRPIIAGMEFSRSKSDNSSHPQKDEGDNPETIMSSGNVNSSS

Edg-2 [2] = target: T2, Edg-2 (Homo sapiens, UniProt Q92633); assay: as above; assay type: cell-based; conditions: HTC cells expressing Edg-2; for stimulation of calcium increases, Edg-2: concentrations as high as 25 µM
T2 construct: expressed in transfected cells; host or cells: HTC rat hepatoma cells
T2 sequence (Q92633 whole entry): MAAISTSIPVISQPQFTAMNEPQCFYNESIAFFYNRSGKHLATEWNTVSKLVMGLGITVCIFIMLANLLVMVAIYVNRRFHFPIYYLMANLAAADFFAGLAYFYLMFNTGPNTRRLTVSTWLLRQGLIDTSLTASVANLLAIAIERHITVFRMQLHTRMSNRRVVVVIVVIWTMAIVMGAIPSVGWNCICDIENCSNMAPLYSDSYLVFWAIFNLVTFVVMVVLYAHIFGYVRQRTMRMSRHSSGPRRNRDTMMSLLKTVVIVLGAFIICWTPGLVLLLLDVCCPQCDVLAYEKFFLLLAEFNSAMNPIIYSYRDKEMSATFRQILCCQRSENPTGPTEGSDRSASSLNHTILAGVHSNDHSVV

Edg-3 [3] = target: T3, Edg-3 (Homo sapiens, UniProt Q99500); assay: as above; assay type: cell-based; conditions: HTC cells expressing Edg-3; for stimulation of calcium increases, Edg-3: concentrations as high as 25 µM
T3 construct: expressed in transfected cells; host or cells: HTC rat hepatoma cells
T3 sequence (Q99500 whole entry): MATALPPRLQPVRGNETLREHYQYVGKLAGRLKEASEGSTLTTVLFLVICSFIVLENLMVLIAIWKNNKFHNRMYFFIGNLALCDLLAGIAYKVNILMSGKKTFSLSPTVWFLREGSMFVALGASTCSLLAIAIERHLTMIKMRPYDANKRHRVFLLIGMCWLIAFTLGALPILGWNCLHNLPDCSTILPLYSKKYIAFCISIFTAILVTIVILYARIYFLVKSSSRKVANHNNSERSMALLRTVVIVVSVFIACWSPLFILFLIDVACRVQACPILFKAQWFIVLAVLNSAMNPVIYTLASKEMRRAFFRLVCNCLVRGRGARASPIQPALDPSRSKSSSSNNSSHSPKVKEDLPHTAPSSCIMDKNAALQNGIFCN

Edg-4 [4] = target: T4, Edg-4 (Homo sapiens, UniProt Q9HBW0); assay: as above; assay type: cell-based; conditions: HTC cells expressing Edg-4; for stimulation of calcium increases, Edg-4: concentrations as high as 25 µM
Target sequence in this assay (Q9HBW0 1-340 limits assumed): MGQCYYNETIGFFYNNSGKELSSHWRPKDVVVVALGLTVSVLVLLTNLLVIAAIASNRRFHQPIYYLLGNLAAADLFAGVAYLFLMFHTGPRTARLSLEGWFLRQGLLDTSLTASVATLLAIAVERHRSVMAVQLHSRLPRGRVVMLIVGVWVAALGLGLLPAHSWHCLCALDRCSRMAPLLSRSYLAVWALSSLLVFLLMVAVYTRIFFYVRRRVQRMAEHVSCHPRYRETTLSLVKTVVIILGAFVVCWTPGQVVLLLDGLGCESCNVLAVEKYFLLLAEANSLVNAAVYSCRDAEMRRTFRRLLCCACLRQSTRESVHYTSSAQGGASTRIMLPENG

Edg-5 [5] = target: T5, Edg-5 (Homo sapiens, UniProt O95136); assay: as above; assay type: cell-based; conditions: HTC cells expressing Edg-5; for stimulation of calcium increases, Edg-5: concentrations as high as 25 µM
T5 construct: expressed in transfected cells; host or cells: HTC rat hepatoma cells
T5 sequence (O95136 whole entry): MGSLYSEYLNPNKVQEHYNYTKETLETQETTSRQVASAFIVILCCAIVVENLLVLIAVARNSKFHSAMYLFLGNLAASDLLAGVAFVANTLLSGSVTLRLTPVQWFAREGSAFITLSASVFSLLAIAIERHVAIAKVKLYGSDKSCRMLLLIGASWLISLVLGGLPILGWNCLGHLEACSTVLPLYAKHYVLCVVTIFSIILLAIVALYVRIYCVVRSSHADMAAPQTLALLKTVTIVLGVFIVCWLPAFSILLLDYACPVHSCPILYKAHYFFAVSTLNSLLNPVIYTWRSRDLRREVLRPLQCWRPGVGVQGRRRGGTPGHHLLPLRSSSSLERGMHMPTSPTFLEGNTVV

Edg-6 [6] = target: T6, Edg-6 (Homo sapiens, UniProt O95977); assay: as above; assay type: cell-based; conditions: HTC cells expressing Edg-6; for stimulation of calcium increases, Edg-6: concentrations as high as 25 µM
T6 construct: expressed in transfected cells; host or cells: HTC rat hepatoma cells
T6 sequence (O95977 1-384): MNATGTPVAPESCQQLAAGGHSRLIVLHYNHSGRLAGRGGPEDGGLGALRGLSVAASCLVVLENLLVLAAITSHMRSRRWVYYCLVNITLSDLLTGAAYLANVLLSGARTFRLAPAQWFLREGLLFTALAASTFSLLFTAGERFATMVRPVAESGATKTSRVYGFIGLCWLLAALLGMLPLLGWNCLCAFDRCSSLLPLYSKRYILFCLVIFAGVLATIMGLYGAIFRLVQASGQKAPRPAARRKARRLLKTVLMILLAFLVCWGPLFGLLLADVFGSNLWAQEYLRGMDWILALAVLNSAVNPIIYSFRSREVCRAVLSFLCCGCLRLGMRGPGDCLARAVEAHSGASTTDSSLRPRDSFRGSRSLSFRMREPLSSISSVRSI

human Edg 7 receptors [7] = target: T7, human Edg 7 receptors (Homo sapiens, UniProt Q9UBY5); assay: as above; assay type: cell-based; conditions: for EC50 / specific activation of the Edg-7 receptor: HTC cells expressing human Edg 7; for Fold Selectivity: agonist selectivity for Edg-7 relative to other Edg receptors and null cells
T7 construct: expressed in transfected cells
T7 sequence (Q9UBY5 1-353): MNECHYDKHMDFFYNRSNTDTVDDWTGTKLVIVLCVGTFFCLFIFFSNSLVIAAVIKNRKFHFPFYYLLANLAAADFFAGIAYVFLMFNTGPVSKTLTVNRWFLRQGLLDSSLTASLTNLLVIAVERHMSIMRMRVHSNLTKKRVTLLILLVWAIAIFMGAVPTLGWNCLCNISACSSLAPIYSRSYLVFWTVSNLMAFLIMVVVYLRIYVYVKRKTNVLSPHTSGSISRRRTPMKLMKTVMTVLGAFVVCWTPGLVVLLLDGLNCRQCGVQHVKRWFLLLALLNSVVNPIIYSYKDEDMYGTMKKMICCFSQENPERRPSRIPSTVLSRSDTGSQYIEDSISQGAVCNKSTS
Procedure: (§1) The compounds were tested in HTC cells expressing human Edg 7 receptors. […] The compounds are tested in this recombinant system first, and subsequently tested in cell lines expressing Edg-7 (in addition to other Edg receptors).
(§2) LPA receptors such as Edg-7, couple to calcium effector pathways, and result in increases in intracellular calcium following receptor activation (An, 1998, J. Cell. Biochem Supp. 30-31:147-157). This biological response lends itself to a very efficient, high-throughput screen using a Fluorescence Imaging Plate Reader (FLIPR; Molecular Devices, Sunnyvale, Calif.). The FLIPR system is a real-time, cell-based assay system with continuous fluorescence detection using a cooled CCD camera. The FLIPR system was used to developing an Edg-7 receptor screen. Rat hepatoma cells stably expressing Edg-7 receptor were plated on 384-well plates and loaded with a calcium dye loading kit (Molecular Devices, Sunnyvale, Calif.) for 1 hour at room temperature. Cells were then placed on the FLIPR^384 (Molecular Devices, Sunnyvale, Calif.) and excited by an argon laser at […]. The data for the entire 384-well plate was updated every second. An integrated robotic pipettor allowed for simultaneous compound addition into each individual well in the plate

Edg-8 [8] = target: T8, Edg-8 (Homo sapiens, UniProt Q9H228); assay: as above; assay type: cell-based; conditions: HTC cells expressing Edg-8; for stimulation of calcium increases, Edg-8: concentrations as high as 25 µM
T8 construct: expressed in transfected cells; host or cells: HTC rat hepatoma cells
T8 sequence (Q9H228 whole entry): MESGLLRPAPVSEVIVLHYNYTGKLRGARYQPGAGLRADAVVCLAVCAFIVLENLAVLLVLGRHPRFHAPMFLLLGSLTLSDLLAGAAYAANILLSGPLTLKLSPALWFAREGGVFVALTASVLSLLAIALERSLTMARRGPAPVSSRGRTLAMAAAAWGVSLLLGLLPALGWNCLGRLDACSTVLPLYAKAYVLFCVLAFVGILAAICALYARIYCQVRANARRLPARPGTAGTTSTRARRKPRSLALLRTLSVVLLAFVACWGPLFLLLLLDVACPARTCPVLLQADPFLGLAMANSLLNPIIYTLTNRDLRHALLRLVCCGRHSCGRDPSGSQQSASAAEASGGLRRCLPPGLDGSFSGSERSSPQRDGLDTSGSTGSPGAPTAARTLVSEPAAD

untransfected HTC cells = assay: Calcium mobilization assay (FLIPR), agonist stimulation in null cells; assay type: cell-based, rat; conditions: for EC50: Rattus norvegicus; for stimulation of calcium increases, untransfected HTC cells: concentrations as high as 25 µM
Edg-1 [9] = target: T1, Edg-1; assay: Calcium mobilization assay (FLIPR), inhibition of S1P-stimulated calcium increase; assay type: cell-based; conditions: HTC cells expressing Edg-1
Edg-2 [10] = target: T2, Edg-2; assay: Calcium mobilization assay (FLIPR), inhibition of LPA-stimulated calcium increase; assay type: cell-based; conditions: HTC cells expressing Edg-2
Edg-3 [11] = target: T3, Edg-3; assay: Calcium mobilization assay (FLIPR), inhibition of S1P-stimulated calcium increase; assay type: cell-based; conditions: HTC cells expressing Edg-3
Edg-4 [12] = target: T4, Edg-4; assay: Calcium mobilization assay (FLIPR), inhibition of LPA-stimulated calcium increase; assay type: cell-based; conditions: HTC cells expressing Edg-4
Target sequence in this assay (Q9HBW0 1-344 limits assumed): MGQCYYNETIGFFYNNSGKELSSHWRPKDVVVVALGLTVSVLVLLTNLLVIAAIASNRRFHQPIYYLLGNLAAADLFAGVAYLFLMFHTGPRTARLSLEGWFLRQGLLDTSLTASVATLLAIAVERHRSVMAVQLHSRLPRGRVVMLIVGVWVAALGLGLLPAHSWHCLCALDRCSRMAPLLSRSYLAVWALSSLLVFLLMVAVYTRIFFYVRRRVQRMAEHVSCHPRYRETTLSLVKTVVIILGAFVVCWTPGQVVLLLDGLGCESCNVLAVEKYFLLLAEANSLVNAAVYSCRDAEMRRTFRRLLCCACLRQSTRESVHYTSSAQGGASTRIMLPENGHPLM

Edg-5 [13] = target: T5, Edg-5; assay: Calcium mobilization assay (FLIPR), inhibition of S1P-stimulated calcium increase; assay type: cell-based; conditions: HTC cells expressing Edg-5
Edg-6 [14] = target: T6, Edg-6; assay: as above; assay type: cell-based; conditions: HTC cells expressing Edg-6
human Edg 7 receptors [15] = target: T7, human Edg 7 receptors; assay: Calcium mobilization assay (FLIPR), inhibition of LPA response; assay type: cell-based; conditions: for IC50: HTC cells expressing human Edg 7; for Fold Selectivity: inhibitory selectivity for Edg-7 relative to other Edg receptors
Procedure: as §1
The radioligand binding assays were conducted as described in Section 6.15 (Example 15).
as §2

Edg-8 [16] = target: T8, Edg-8; assay: Calcium mobilization assay (FLIPR), inhibition of S1P-stimulated calcium increase; assay type: cell-based; conditions: HTC cells expressing Edg-8

| Structure (SMILES) | EC50 (Edg-1 [1]) [µM] | stimulation of calcium increases, Edg-1 (Edg-1 [1]) | EC50 (Edg-2 [2]) [µM] | stimulation of calcium increases, Edg-2 (Edg-2 [2]) | EC50 (Edg-3 [3]) [µM] | stimulation of calcium increases, Edg-3 (Edg-3 [3]) | EC50 (Edg-4 [4]) [µM] | stimulation of calcium increases, Edg-4 (Edg-4 [4]) | EC50 (Edg-5 [5]) [µM] | stimulation of calcium increases, Edg-5 (Edg-5 [5]) | EC50 (Edg-6 [6]) [µM] | stimulation of calcium increases, Edg-6 (Edg-6 [6]) | EC50 (human Edg 7 receptors [7]) [µM] | specific activation of the Edg-7 receptor (human Edg 7 receptors [7]) | Fold Selectivity (human Edg 7 receptors [7]) [Fold] | EC50 (Edg-8 [8]) [µM] | stimulation of calcium increases, Edg-8 (Edg-8 [8]) | melting point | EC50 (untransfected HTC cells) [µM] | stimulation of calcium increases, untransfected HTC cells (untransfected HTC cells) | also measured |
| --- | --- | --- | --- | --- | --- | --- | --- | --- | --- | --- | --- | --- | --- | --- | --- | --- | --- | --- | --- | --- | --- |
| Cc1ccc(S(=O)(=O)N=C2NC(=O)/C(=C3/C(=O)Nc4ccccc43)S2)cc1 [Compound 105, 4-Methyl-N-[4-oxo-5-(2-oxo-1,2-dihydroindol-3-ylidene)thiazolidin-2-ylidene]-benzenesulfonamide] | – | – | – | – | – | – | – | – | – | – | – | – | – | – | – | – | – | 320 °C (dec.) | – | – | IC50 (Edg-1 [9]): > 20 µM; IC50 (Edg-2 [10]): > 20 µM; IC50 (Edg-3 [11]): > 20 µM; IC50 (Edg-4 [12]): > 20 µM; IC50 (Edg-5 [13]): > 20 µM; IC50 (Edg-6 [14]): > 20 µM; selective inhibition of the Edg-7 receptor (FIG. 1, FIG. 2) (human Edg 7 receptors [15]; HTC cells expressing Edg-7): exhibited selectivity; IC50 (human Edg 7 receptors [15]): 0.52 µM; Fold Selectivity (human Edg 7 receptors [15]): >38.5 Fold; IC50 (Edg-8 [16]): > 20 µM |
| O=C(O)COc1ccc(Br)cc1/C=C1\S/C(=N\c2ccc(Cl)cc2)NC1=O (racemic) [Compound 107, 4-Bromo-2-[2-(4-chlorophenylimino)-4-oxothiazolidin-5-ylidenemethyl]phenoxyacetic acid] | – | – | – | – | – | – | – | – | – | – | – | – | – | – | – | – | – | 272 °C (dec.) | – | – | IC50 (Edg-1 [9]): > 20 µM; IC50 (Edg-2 [10]): > 20 µM; IC50 (Edg-3 [11]): > 20 µM; IC50 (Edg-4 [12]): > 20 µM; IC50 (Edg-5 [13]): > 20 µM; IC50 (Edg-6 [14]): > 20 µM; IC50 (human Edg 7 receptors [15]): 7.73 µM; Fold Selectivity (human Edg 7 receptors [15]): >2.6 Fold; IC50 (Edg-8 [16]): > 20 µM |

Continued, in another order:

| EC50 (Edg-1 [1]) [µM] | stimulation of calcium increases, Edg-1 (Edg-1 [1]) | EC50 (Edg-2 [2]) [µM] | stimulation of calcium increases, Edg-2 (Edg-2 [2]) | EC50 (Edg-3 [3]) [µM] | stimulation of calcium increases, Edg-3 (Edg-3 [3]) | EC50 (Edg-4 [4]) [µM] | stimulation of calcium increases, Edg-4 (Edg-4 [4]) | EC50 (Edg-5 [5]) [µM] | stimulation of calcium increases, Edg-5 (Edg-5 [5]) | EC50 (Edg-6 [6]) [µM] | stimulation of calcium increases, Edg-6 (Edg-6 [6]) | EC50 (human Edg 7 receptors [7]) [µM] | specific activation of the Edg-7 receptor (human Edg 7 receptors [7]) | Fold Selectivity (human Edg 7 receptors [7]) [Fold] | EC50 (Edg-8 [8]) [µM] | stimulation of calcium increases, Edg-8 (Edg-8 [8]) | melting point | Structure (SMILES) | EC50 (untransfected HTC cells) [µM] | stimulation of calcium increases, untransfected HTC cells (untransfected HTC cells) | also measured |
| --- | --- | --- | --- | --- | --- | --- | --- | --- | --- | --- | --- | --- | --- | --- | --- | --- | --- | --- | --- | --- | --- |
| > 25 | did not stimulate | > 25 | did not stimulate | > 25 | did not stimulate | > 25 | did not stimulate | > 25 | did not stimulate | > 25 | did not stimulate | 0.37 | specifically activate | >68 | > 25 | did not stimulate | 284 to 285 °C | COc1ccc(-c2nc3ccc(C(=O)O)cc3nc2-c2ccc(OC)cc2)cc1 [Compound 129, 2,3-bis-(4-Methoxyphenyl) quinoxaline-6-carboxylic acid] | > 25 | did not stimulate | – |
| > 25 | did not stimulate | > 25 | did not stimulate | > 25 | did not stimulate | > 25 | did not stimulate | > 25 | did not stimulate | > 25 | did not stimulate | 0.23 | specifically activate | >109 | > 25 | did not stimulate | 134 to 135 °C | CCCCCC(CCCCC)=N/N=C1\NC(=O)C(CC(=O)O)S1 (stereo not drawn) [Compound 127, 4-Oxo-2-[(1-pentylhexylidene)hydrazono]thiazolidin-5-ylacetic acid] | > 25 | did not stimulate | – |
| > 25 | did not stimulate | > 25 | did not stimulate | > 25 | did not stimulate | > 25 | did not stimulate | > 25 | did not stimulate | > 25 | did not stimulate | 1.61 | specifically activate | >15.5 | > 25 | did not stimulate | 103 to 105 °C | Cc1cc(C)c2c(c1)Cc1ccccc1S2(=O)=O [Compound 133, 2,4-Dimethyl-9H-thioxanthene 10,10-dioxide] | > 25 | did not stimulate | – |
